The nature of this series: xn = mol fraction of the nth substance listed. As to conditions: Fluid (supercritical or subcritical phases), Taylor dispersion method, x1 = 0.

As to `CCC(C)c1ccccc1` (stereo not given) [(1-methylpropyl)benzene] + O=C=O, the binary diffusion coefficient runs as follows: (313 K, 15000 kPa) 1.01e-08 m2/s; (313 K, 20000 kPa) 9.15e-09 m2/s; (313 K, 25000 kPa) 8.18e-09 m2/s; (313 K, 30000 kPa) 7.54e-09 m2/s; (313 K, 35000 kPa) 7.24e-09 m2/s; (323 K, 15000 kPa) 1.2e-08 m2/s. For the same compound, the binary diffusion coefficient is 1.02e-08 m2/s (323 K, 20000 kPa); 9.3e-09 m2/s (323 K, 25000 kPa); 8.54e-09 m2/s (323 K, 30000 kPa); 8.07e-09 m2/s (323 K, 35000 kPa); 1.32e-08 m2/s (333 K, 15000 kPa); 1.19e-08 m2/s (333 K, 20000 kPa). The binary diffusion coefficient is, setting by setting: (333 K, 25000 kPa) 1.04e-08 m2/s; (333 K, 30000 kPa) 9.49e-09 m2/s; (333 K, 35000 kPa) 8.98e-09 m2/s.

With `CC(C)Cc1ccccc1` [(2-methylpropyl)benzene] + O=C=O, the binary diffusion coefficient reads like this: (313 K, 15000 kPa) 1.02e-08 m2/s; (313 K, 20000 kPa) 9.12e-09 m2/s; (313 K, 25000 kPa) 8.35e-09 m2/s; (313 K, 30000 kPa) 7.6e-09 m2/s; (313 K, 35000 kPa) 7.28e-09 m2/s; (323 K, 15000 kPa) 1.24e-08 m2/s. Further, the binary diffusion coefficient was 1.03e-08 m2/s (323 K, 20000 kPa); 9.43e-09 m2/s (323 K, 25000 kPa); 8.64e-09 m2/s (323 K, 30000 kPa); 8.07e-09 m2/s (323 K, 35000 kPa); 1.4e-08 m2/s (333 K, 15000 kPa); 1.24e-08 m2/s (333 K, 20000 kPa). The binary diffusion coefficient (333 K, 25000 kPa) came out at 1.07e-08 m2/s; the binary diffusion coefficient (333 K, 30000 kPa) was 9.88e-09 m2/s; the binary diffusion coefficient (333 K, 35000 kPa) stood at 9.37e-09 m2/s.

For the compound `CC(C)CCc1ccccc1` [(3-methylbutyl)benzene] + O=C=O, the binary diffusion coefficient was 9.63e-09 m2/s (313 K, 15000 kPa); 8.71e-09 m2/s (313 K, 20000 kPa); 7.72e-09 m2/s (313 K, 25000 kPa); 7.24e-09 m2/s (313 K, 30000 kPa); 6.79e-09 m2/s (313 K, 35000 kPa); 1.11e-08 m2/s (323 K, 15000 kPa). In addition, the binary diffusion coefficient reads like this: (323 K, 20000 kPa) 9.92e-09 m2/s; (323 K, 25000 kPa) 8.94e-09 m2/s; (323 K, 30000 kPa) 8.4e-09 m2/s; (323 K, 35000 kPa) 7.57e-09 m2/s; (333 K, 15000 kPa) 1.32e-08 m2/s; (333 K, 20000 kPa) 1.16e-08 m2/s. In addition, the binary diffusion coefficient (333 K, 25000 kPa) was found to be 1.02e-08 m2/s; the binary diffusion coefficient (333 K, 30000 kPa) is 9.21e-09 m2/s; the binary diffusion coefficient (333 K, 35000 kPa) amounted to 8.62e-09 m2/s.

Values taken from the NIST ThermoML archive (doi:10.1021/je400336p).
